From US20240084258A1, “METHOD FOR PREPARING BROWN ADIPOCYTE” (KYOTO PREFECTURAL PUBLIC UNIVERSITY CORPORATION, priority 2015, published 2024)

How the values were obtained:
Format in all cases: cell-based
[1] = tested on: human dermal fibroblasts (HDFs); assay: UCP1 mRNA response of induced cells to Isoproterenol or FSK stimulation (Example 3); conditions: cells cultured 14 days with T3, Rosiglitazone and D4476, then 10 μM Isoproterenol or FSK for 5 hr; FIG. 3
Method: 10 μM Isoproterenol or FSK was added to these cells as described in the Figure. As a control, a group free of the addition was also prepared. After 5 hr, the culture medium was removed from each well by suction, the cells were washed with PBS(−) and total RNA was extracted from the cells with ISOGEN II. qRT-PCR was performed in the same manner as in Example 2. The mRNA level of UCP1 gene was quantified as a ratio to […] gene mRNA and calculated with the value of fibroblast cultured in the normal medium as 1.

[2] = tested on: human dermal fibroblasts (HDFs); assay: UCP1 gene mRNA, comparison of four inhibitors at 4-16 μM (Example 15); conditions: for induction efficiency into brown adipocytes (order): compound at 4, 8, 12 or 16 μM up to Day 9, UCP1 mRNA on day 14, FIG. 15; for UCP1 gene expression (conversion to brown adipocytes): compound at 4, 8, 12 or 16 μM up to Day 9, then without compound Day 9-14, FIG. 15
Method: (§1) (Day −1). In the control (Ctrl) group, the culture supernatant of the next day (Day 0) was removed by suction and the cells were cultured in a normal medium up to day 14 while substituting the medium with a fresh one once every other day. In groups other than the control (Ctrl) group, the culture supernatant was removed by suction on day 0, an adipocyte induction medium or an adipocyte induction medium added with any of ALK5 inhibitor II, SB431542, LY2157299 and D4476 at a concentration of 4 μM, 8 μM, 12 μM or 16 μM respectively was added at 1 mL/well.
Thereafter, the cells were cultured in an adipocyte induction medium free of any compound of ALK5 inhibitor II, SB431542, LY215799 and D4476 during Day 9-Day 14.

[3] = tested on: human dermal fibroblasts (HDFs); assay: UCP1, CIDEA and KCNK3 gene mRNA by real time RT-PCR (Example 17); conditions: ALK5 inhibitor II 4 μM or LY2157299 8 μM up to Day 9, day 14, FIG. 17
Method: as §1, with “and” for “an adipocyte induction medium or”, “II (4 μM) and” for “II, SB431542,”, “(8 μM)” for “and D4476 at a concentration of 4 μM, 8 μM, 12 μM or 16 μM respectively”
Thereafter, the cells were cultured in an adipocyte induction medium free of any compound of ALK5 inhibitor II and LY215799 during Day 9-Day 14. On day 14, the medium was removed by suction from the wells of all groups, and the cells were washed with PBS(−).

[4] = tested on: human dermal fibroblasts (HDFs); assay: UCP1 protein immunostaining, comparison of four inhibitors (Example 16); conditions: ALK5 inhibitor II 4 μM, LY2157299 8 μM; for UCP1 protein expression by immunostaining (induction into brown adipocytes): SB431542 4 μM, D4476 4 μM up to Day 9, day 14, FIG. 16A, 16B
Method: Thereafter, the cells were cultured in an adipocyte induction medium free of any compound of ALK5 inhibitor II, SB431542, LY215799 and D4476 during Day 9-Day 14. On day 14, the medium was removed by suction from each well, and the cells were washed with PBS(−).

[5] = tested on: human dermal fibroblasts (HDFs); assay: AdipoQ gene mRNA by real time RT-PCR (Example 6); conditions: induction medium + T3 + Rosiglitazone, D4476, SB431542, ALK5 Inhibitor II 2 μM, PD0325901 1 μM, day 14, FIG. 6
Method: (§2) This was seeded in a 24-well plate at a concentration of 1×10^4 cells/well (day 0), and culturing was started at 5% CO2/95% humid air, 37° C. The next day, the culture supernatant was removed by suction and, as described in the Figure, a normal medium, an adipocyte induction medium, or an adipocyte induction medium added with each low-molecular-weight compound and the like was added at 500 μL/well. […] The concentrations of the additives are as follows: • T3: 1 nM • Rosiglitazone: 1 μM • D4476: 2 μM. • Pifithrin alpha [p53 inhibitor]: 5 μM • PD0325901: 1 μM • SB431542: 2 μM • ALK5 Inhibitor II: 2 μM. The culture medium was substituted by a fresh one every 3-4 days and the cells were cultured up to day 14.

[6] = tested on: human dermal fibroblasts (HDFs); assay: UCP1 protein immunostaining, fluorescence intensity (Example 8); conditions: for UCP1 protein expression by immunostaining (conversion to brown adipocytes): induction medium + T3 + Rosiglitazone, D4476, SB431541, ALK5 inhibitor II, FSK 2 μM, PD0325901 1 μM, day 14, FIG. 8A-C
Method: (§3) The next day, the culture supernatant was removed by suction and, as described in the Figure, a normal medium, an adipocyte induction medium, or an adipocyte induction medium added with each compound and the like was added at 500 μL/well. […] The concentrations of the additives are as follows: • T3: 1 nM • Rosiglitazone: 1 μM • […]: 2 μM • SB431541: 2 μM • ALK5 inhibitor II: 2 μM • PD0325901: 1 μM • Forskolin (FSK): 2 μM. The culture medium was substituted by a fresh one every 3-4 days and the cells were cultured up to day 14. […] The cells were photographed at a magnification of 200 with a fluorescence microscope and the fluorescence intensity was measured.

[7] = tested on: human dermal fibroblasts (HDFs); assay: PGC-1alpha gene mRNA by real time RT-PCR (Example 5); conditions: induction medium + T3 + Rosiglitazone, FSK 2 μM, PD0325901 1 μM, day 14, FIG. 5
Method: The next day, the culture supernatant was removed by suction and, as described in the Figure, a normal medium, an adipocyte induction medium, or an adipocyte induction medium added with each compound and the like was added at 500 μL/well. […] The concentrations of the additives are as follows: • T3: 1 nM • Rosiglitazone: 1 μM • Pifithrin alpha [p53 inhibitor]: 5 μM • Forskolin (FSK): 2 μM • PD0325901: 1 μM. The culture medium was substituted by a fresh one every 3-4 days and the cells were cultured up to day 14.

[8] = tested on: human dermal fibroblasts (HDFs); assay: UCP1 gene mRNA by real time RT-PCR (Example 2); conditions: induction medium + T3 + Rosiglitazone, D4476 2 μM, FSK 2 μM, PD0325901 1 μM, SB431542 2 μM, day 14, FIG. 2
Method: as §2, with “with each low-molecular compound and” for “with each low-molecular-weight compound and”, “D4476: 2 μM • Pifithrin” for “D4476: 2 μM. • Pifithrin”, “μM • Forskolin (FSK): 2 μM • PD0325901: 1” for “μM • PD0325901: 1”, “• SB431542: 2 μM.” for “• SB431542: 2 μM • ALK5 Inhibitor II: 2 μM.”

[9] = tested on: human dermal fibroblasts (HDFs); assay: Oil Red O staining of fibroblasts cultured with compounds (Example 1); conditions: adipocyte induction medium with T3 1 nM and Rosiglitazone 1 μM, D4476 2 μM, SB431542 2 μM, ALK5 Inhibitor II 2 M, Pifithrin alpha 5 μM, day 14, FIG. 1
Method: The next day, the culture supernatant was removed by suction and, as described in the Figure, a normal medium, an adipocyte induction medium, or an adipocyte induction medium added with the compound and the like was added at 500 μL/well.
The adipocyte induction medium is a 10% FBS-added DMEM+MDI medium (10% FBS-added DMEM supplemented with 0.5 mM isobutylmethylxanthine (IBMX), 0.5 μM dexamethason and 1 μg/mL Insulin).
The concentrations of the additives are as follows: • T3: 1 nM • Rosiglitazone: 1 μM • D4476: 2 μM • Pifithrin alpha [p53 inhibitor]: 5 μM • SB431542: 2 μM • ALK5 Inhibitor II: […].
The culture medium was substituted by a fresh one every 3-4 days and the cells were cultured up to day 14.
After washing 3 times with sterile distilled water, Oil Red O staining solution was added, and the mixture was incubated at room temperature for 15 min. Then, the cells were washed with sterile distilled water and photographed at a magnification of 100 with a phase contrast microscope.

[10] = tested on: human dermal fibroblasts (HDFs); assay: BODIPY staining of lipid droplets (Example 7); conditions: induction medium + T3 + Rosiglitazone, compounds 2 μM, day 14, FIG. 7A, 7B
Method: as §3, with “each low-molecular-weight” for “each”, “II:” for “II: 2 μM • PD0325901: 1 μM • Forskolin (FSK):”

[11] = tested on: human dermal fibroblasts (HDFs); assay: CIDEA gene mRNA by real time RT-PCR (Example 4); conditions: induction medium + T3 + Rosiglitazone, compounds 2 μM, day 14, FIG. 4
Method: The next day, the culture supernatant was removed by suction and, as described in the Figure, a normal medium, an adipocyte induction medium, or an adipocyte induction medium added with each compound and the like was added at 500 μL/well. […] The concentrations of the additives are as follows: • T3: 1 nM • Rosiglitazone: 1 μM • D4476: 2 μM • Pifithrin alpha [p53 inhibitor]: 5 μM • SB431542: 2 μM • ALK5 Inhibitor II: 2 μM. The culture medium was substituted by a fresh one every 3 4 days and the cells were cultured up to day 14.

Compound: CC(C)NCC(O)c1ccc(O)c(O)c1 (centres unmarked) [Isoproterenol, isoproterenol]
- UCP1 mRNA expression on stimulation [1]: more strongly express UCP1 mRNA

Compound: Cc1cccc(-c2nn3c(c2-c2ccnc4ccc(C(N)=O)cc24)CCC3)n1 [LY2157299, 4-[5,6-dihydro-2-(6-methyl-2-pyridinyl)-4H-pyrrolo[1,2-b]pyrazol-3-yl]-6-quinolinecarboxamide]
- induction efficiency into brown adipocytes (order) [2]: second most strong
- UCP1 gene expression (conversion to brown adipocytes) [2]: converted to brown adipocytes strongly expressing UCP1 gene
- CIDEA gene expression [3]: induced into brown adipocytes expressing UCP1 gene, CIDEA gene and KCNK3 gene
- KCNK3 gene expression [3]: induced into brown adipocytes expressing UCP1 gene, CIDEA gene and KCNK3 gene
- UCP1 gene expression [3]: induced into brown adipocytes expressing UCP1 gene, CIDEA gene and KCNK3 gene
- UCP1 protein expression by immunostaining (induction into brown adipocytes) [4]: induced into brown adipocytes expressing UCP1 protein
- strength of induction of UCP1 expression (order) ([4]; immunostaining day 14, FIG. 16): second most strong

Compound: O=C(NOC[C@H](O)CO)c1ccc(F)c(F)c1Nc1ccc(I)cc1F [PD0325901]
- mRNA expression of AdipoQ gene (conversion to brown adipocytes) [5]: converted to brown adipocytes expressing mRNA of AdipoQ gene
- change of expression of UCP-1 protein by addition culture ([6]; PD0325901 1 μM or Forskolin 2 μM, day 14, FIG. 8B): increases
- UCP1 protein expression by immunostaining (conversion to brown adipocytes) [6]: converted to brown adipocytes expressing UCP1 protein
- mRNA expression of PGC-1alpha gene (conversion to brown adipocytes) [7]: converted to brown adipocytes expressing mRNA of PGC-1alpha gene
- mRNA expression of UCP1 gene (conversion to brown adipocytes) [8]: induced to brown adipocytes that express mRNA of UCP1 gene

Compound: Cc1ccc(C(=O)Cn2c3c(sc2=N)CCCC3)cc1 [Pifithrin alpha]
- Oil Red O staining [9]: hardly observed

Compound: NC(=O)c1ccc(-c2nc(-c3ccc4c(c3)OCO4)c(-c3ccccn3)[nH]2)cc1 [SB431542, 4-[4-(1,3-Benzodioxol-5-yl)-5-(pyridin-2-yl)-1H-imidazol-2-yl]benzamide]
- lipid droplets stained with BODIPY (conversion to brown adipocytes) [10]: converted to brown adipocytes having lipid droplets stained with BODIPY
- Oil Red O staining [9]: Remarkable Oil Red O staining
- mRNA expression of AdipoQ gene (conversion to brown adipocytes) [5]: converted to brown adipocytes expressing mRNA of AdipoQ gene
- UCP1 protein expression by immunostaining (conversion to brown adipocytes) [6]: converted to brown adipocytes expressing UCP1 protein
- induction efficiency into brown adipocytes (order) [2]: ALK5 inhibitor II>LY2157299>SB431541>D4476
- UCP1 gene expression (conversion to brown adipocytes) [2]: converted to brown adipocytes strongly expressing UCP1 gene
- mRNA expression of CIDEA gene (conversion to brown adipocytes) [11]: converted to brown adipocytes expressing mRNA of CIDEA gene
- mRNA expression of UCP1 gene (conversion to brown adipocytes) [8]: induced to brown adipocytes that express mRNA of UCP1 gene
- UCP1 protein expression by immunostaining (induction into brown adipocytes) [4]: induced into brown adipocytes expressing UCP1 protein
